Here are results for 62 compounds from patent US20120190669A1, “OXINDOLE COMPOUNDS” (CYLENE PHARMACEUTICALS, INC., priority 2008, published 2012).

Where only a bound is given, the exact number is not on record here.

Sequence of recombinant PIM-1 (P11309 whole entry): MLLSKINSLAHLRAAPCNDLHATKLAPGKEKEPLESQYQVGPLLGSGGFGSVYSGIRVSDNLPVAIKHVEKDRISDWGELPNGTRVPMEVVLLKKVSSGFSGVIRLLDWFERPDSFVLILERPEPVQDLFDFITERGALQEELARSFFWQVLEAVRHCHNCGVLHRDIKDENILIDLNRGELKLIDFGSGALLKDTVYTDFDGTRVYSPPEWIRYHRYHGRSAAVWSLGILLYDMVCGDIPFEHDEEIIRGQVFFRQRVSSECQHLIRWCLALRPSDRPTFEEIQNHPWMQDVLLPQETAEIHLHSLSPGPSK

The first experiment addresses recombinant PIM-1 (Homo sapiens, UniProt P11309). Put plainly: PIM-1 kinase assay (radiometric, 15 uM ATP, DMSO 4%). The format is biochemical. The conditions noted are these: Table 1; % inhibition at the high dose (2 micromolar) in a single screening assay; 15 μM ATP. The method, then: The following procedure was used to assay the PIM-1 kinase activity of compounds of the invention. Other methods for assaying PIM-1 and other PIM kinases, as well as methods to assay for activity against the various kinases in FIG. 1, are known in the art.
(specific activity approx. 500 cpm/pmol), DMSO 4% and test inhibitor compound at the required concentration. The reaction was initiated by the addition of the Magnesium ATP mixture. After 40 min incubation at 23° C., the reactions were quenched by the addition of 100 ul 0.75% Phosphoric acid, and the labeled peptide collected by filtration through a phosphocellulose filter plate. The plate was washed 4 times with 0.075% phosphoric acid (100 ul per well) and then, after the addition of scintillation fluid (20 ul per well), the counts were measured by a scintillation counter.
What is called inhibition is the drop in the measured response relative to a control, in per cent. As for `CN(C)CCCOc1ccc(-c2ccc(/C=C3/C(=O)Nc4ccccc43)o2)cn1` [Compound 125], the inhibition at 2 µM was found to be 41.5%. On the same count and under the same terms, to `CN1CCCCC1CNC(=O)c1cccc(-c2ccc(/C=C3/C(=O)Nc4ccc(Cl)cc43)o2)c1` (stereo not drawn) [Compound 44] belongs -9.22%. Take `O=C1Nc2ccc(F)cc2/C1=C\c1ccc(-c2cccc(C(=O)N3CCOCC3)c2)o1` [Compound 19]: the inhibition at 2 µM came out at 42.2%. The same measure, in the same setting: to `CN(C)C1CCN(C(=O)c2ccccc2-c2ccc(/C=C3/C(=O)Nc4ccc(F)cc43)o2)CC1` [Compound 67] belongs 8.84%; to `Cc1cnc(CNC(=O)c2cccc(-c3ccc(/C=C4/C(=O)Nc5ccc(Cl)cc54)o3)c2)cn1` [Compound 107], 21%.

`CN1CCCCC1CNC(=O)c1cc(-c2ccc(/C=C3/C(=O)Nc4ccc(F)cc43)o2)ccc1Cl` (stereo not drawn) [Compound 76]: the inhibition at 2 µM was 15.7%.

As for `CN1CCC(N(C)C(=O)c2ccccc2-c2ccc(/C=C3/C(=O)Nc4ccccc43)o2)C1` (stereo not drawn) [Compound 58], the inhibition at 2 µM came out at 7.15%. In the case of `O=C1Nc2ccccc2/C1=C\c1ccc(-c2ccc(C(=O)NCc3ccncc3)nc2)o1` [Compound 135], the inhibition at 2 µM was found to be 43.6%. Turning to `CN(C)C(=O)c1cccc(-c2ccc(/C=C3/C(=O)Nc4ccc(Cl)cc43)o2)c1` [Compound 175], the inhibition at 2 µM stood at 21.2%. Take `O=C1Nc2ccccc2/C1=C\c1ccc(-c2ccc(C(=O)O)c(O)c2)o1` [Compound 170]: the inhibition at 2 µM came to 43%. On the same count and under the same terms, to `Cc1cnc(CNC(=O)c2ccc(-c3ccc(/C=C4/C(=O)Nc5ccc(F)cc54)o3)cc2)cn1` [Compound 82] belongs 26.6%; to `CCN(CC)CCNC(=O)c1cc(-c2ccc(/C=C3/C(=O)Nc4ccc(F)cc43)o2)ccc1Cl` [Compound 74], 15.6%; to `O=C1Nc2cc(F)ccc2/C1=C\c1ccc(-c2cccc(C(=O)NCCN3CCCC3)c2)o1` [Compound 39], 21%. With `O=C1Nc2ccc(F)cc2/C1=C\c1ccc(-c2ccc(Cl)c(C(=O)NCCN3CCCC3)c2)o1` [Compound 12], the “PIM-1 Inhibition @ 15 μM ATP” value came to 35.20%. On to `O=C1Nc2ccc([N+](=O)[O-])cc2/C1=C\c1ccc(-c2cccc(C(=O)NCCN3CCCC3)c2)o1` [Compound 52], for which the inhibition at 2 µM came out at 20.4%. The same measure, in the same setting: to `CN1CCCCC1CNC(=O)c1cccc(-c2ccc(/C=C3/C(=O)Nc4c3cccc4C(F)(F)F)o2)c1` (stereo not drawn) [Compound 51] belongs 2.32%; to `O=C1Nc2ccccc2/C1=C\c1ccc(-c2ccc(C(=O)NCCCn3ccnc3)c(F)c2)o1` [Compound 161], 28.4%; to `Cn1cncc1CNC(=O)c1cccc(-c2coc(/C=C3/C(=O)Nc4ccc(F)cc43)c2)c1` [Compound 92], 12.7%. The same measure, in the same setting: to `CN1CCCCC1CNC(=O)c1ccc(-c2ccc(/C=C3/C(=O)Nc4ccccc43)o2)cn1` (stereo not drawn) [Compound 133] belongs 7.61%; to `CN1CCC(N(C)C(=O)c2ccccc2-c2ccc(/C=C3/C(=O)Nc4ccc(F)cc43)o2)C1` (stereo not drawn) [Compound 64], 18.2%; to `CCN1CCCC1CNC(=O)c1cccc(-c2coc(/C=C3/C(=O)Nc4ccc(F)cc43)c2)c1` (stereo not drawn) [Compound 90], 17.1%. Same read-out and setting: to `CN1CCN(C(=O)c2cc(-c3ccc(/C=C4/C(=O)Nc5ccccc54)o3)ccc2Cl)CC1` [Compound 26] belongs -18.8%; to `CCN(CC)CCNC(=O)c1ccccc1-c1ccc(/C=C2/C(=O)Nc3ccc(F)cc32)o1` [Compound 68], 11.2%. Regarding `CN1CCCCC1CNC(=O)c1cccc(-c2ccc(/C=C3/C(=O)Nc4ccc([N+](=O)[O-])cc43)o2)c1` (stereo not drawn) [Compound 53], the inhibition at 2 µM was determined as 23.5%. Still for that read-out and setting: to `CCOC(=O)c1cncc(-c2ccc(/C=C3/C(=O)Nc4ccc(Cl)cc43)o2)c1` [Compound 145] belongs 34.5%. For `CN1CCCCC1CNC(=O)c1cccc(-c2ccc(/C=C3/C(=O)Nc4c(Cl)cccc43)o2)c1` (stereo not drawn) [Compound 42], the inhibition at 2 µM worked out at 9.73%. As to `O=C1Nc2ccc(Cl)cc2/C1=C\c1ccc(-c2cccc(C(=O)NCCc3ccc(O)cc3)c2)o1` [Compound 179], the inhibition at 2 µM is 18.4%. As for `O=C1Nc2ccc(F)cc2/C1=C\c1ccc(-c2ccccc2C(=O)NCCN2CCCC2)o1` [Compound 62], the inhibition at 2 µM is 0.28%. Take `CN1CCN(c2ccc(-c3ccc(/C=C4/C(=O)Nc5ccccc54)o3)cn2)CC1` [Compound 126]: the inhibition at 2 µM is 19.5%. Same read-out and setting: to `COCCNC(=O)c1ccc2c(c1)/C(=C\c1ccc(-c3cccc(C(=O)NCCN4CCCC4)c3)o1)C(=O)N2` [Compound 7] belongs 32.7%; to `O=C1Nc2cc(C(F)(F)F)ccc2/C1=C\c1ccc(-c2cccc(C(=O)NCCN3CCCC3)c2)o1` [Compound 49], 2.7%.

On to `CN1CCCC(NC(=O)c2cccc(-c3ccc(/C=C4/C(=O)Nc5ccc(Cl)cc54)o3)c2)C1` (stereo not drawn) [Compound 111], for which the inhibition at 2 µM is 42.6%. Consider `O=C1Nc2ccc(C(=O)O)cc2/C1=C\c1ccc(-c2cccc(C(=O)NCCN3CCCC3)c2)o1` [Compound 6], for which the inhibition at 2 µM came out at 32.3%.

For `CCN1CCCC1CNC(=O)c1ccc(-c2ccc(/C=C3/C(=O)Nc4ccc(F)cc43)o2)cc1` (stereo not drawn) [Compound 84], the inhibition at 2 µM was 91.3%. Same read-out and setting: to `CC(C)(C)OC(=O)Nc1cccc(-c2ccc(/C=C3/C(=O)Nc4ccccc43)o2)c1` [Compound 181] belongs 14.5%. `O=C1Nc2ccccc2/C1=C\c1ccc(-c2ccc(Cl)c(C(=O)NCC3CCCN3)c2)o1` (stereo not drawn) [Compound 29]: the inhibition at 2 µM was -33.4%.

Regarding `CN1CCN(C(=O)c2ccc(-c3ccc(/C=C4/C(=O)Nc5ccccc54)o3)cn2)CC1` [Compound 136], the inhibition at 2 µM worked out at 15.2%. On to `CCN1CCCC1CNC(=O)c1cc(-c2ccc(/C=C3/C(=O)Nc4ccc(F)cc43)o2)ccc1Cl` (stereo not drawn) [Compound 71], for which the inhibition at 2 µM was 5.32%. The same measure, in the same setting: to `CN1CCCCC1CNC(=O)c1cccc(-c2ccc(/C=C3/C(=O)Nc4cc(F)ccc43)o2)c1` (stereo not drawn) [Compound 40] belongs 33.9%; to `COc1cc(CNC(=O)c2cccc(-c3ccc(/C=C4/C(=O)Nc5ccc(Cl)cc54)o3)c2)ccn1` [Compound 142], 32.7%. Turning to `O=C1Nc2ccc(F)cc2/C1=C\c1ccc(-c2cccc(C(=O)NC3CC3)c2)o1` [Compound 20], the inhibition at 2 µM was determined as 46%.

Staying with this experiment, now noted: Table 1; given for compounds with IC50 at or below 2 micromolar; 15 uM ATP; read-out: PIM-1 IC50.
The IC50 is the concentration that gives 50% inhibition. On to `CCN1CCCC1CNC(=O)c1cncc(-c2ccc(/C=C3/C(=O)Nc4ccc(Cl)cc43)o2)c1` (stereo not drawn) [Compound 151], for which the IC50 was < 1000 nM.

On to `CN(C)CCNC(=O)c1cccc(-c2ccc(/C=C3/C(=O)Nc4ccc(Cl)cc43)o2)c1` [Compound 118], for which the IC50 is < 1000 nM. Turning to `COC(=O)c1ccc2c(c1)/C(=C\c1ccc(-c3cccc(C(=O)NCCN4CCCC4)c3)o1)C(=O)N2` [Compound 5], the IC50 was < 1000 nM. As to `O=C1Nc2ccccc2/C1=C\c1ccc(-c2ccc(C(=O)NCCN3CCCC3)c(O)c2)o1` [Compound 182], the IC50 was < 2000 nM. Regarding `CCN1CCCC1CNC(=O)c1ccc(Cl)c(-c2ccc(/C=C3/C(=O)Nc4ccc(F)cc43)o2)c1` (stereo not drawn) [Compound 100], the IC50 was < 1000 nM. With `O=C1Nc2ccccc2/C1=C\c1ccc(-c2ccc(C(=O)O)nc2)o1` [Compound 127], the IC50 was < 1000 nM. Consider `O=C(CN1CCCC1)Nc1cccc(-c2ccc(/C=C3/C(=O)Nc4ccccc43)o2)c1` [Compound 186], for which the half-inhibitory concentration (IC50) was < 1000 nM.

For `Cn1cncc1CNC(=O)c1ccc(-c2ccc(/C=C3/C(=O)Nc4ccccc43)o2)cc1` [Compound 36], the IC50 was < 1000 nM. For the compound `O=C1Nc2ccccc2/C1=C\c1ccc(-c2cc(C(=O)NCCN3CCCC3)ccc2Cl)o1` [Compound 14], the IC50 was < 2000 nM. Same read-out and setting: to `O=C1Nc2ccccc2/C1=C\c1ccc(-c2ccc3ccc(NCCN4CCCC4)nc3c2)o1` [Compound 155] belongs < 1000 nM. Take `CCN1CCCC1CNC(=O)c1ccc(-c2ccc(/C=C3/C(=O)Nc4ccc(F)cc43)o2)cc1` (stereo not drawn) [Compound 84]: the IC50 was < 1000 nM. Turning to `CCN(CC)CCNC(=O)c1ccc(Cl)c(-c2ccc(/C=C3/C(=O)Nc4ccc(F)cc43)o2)c1` [Compound 97], the IC50 is < 1000 nM. With `CCN(CC)CCNC(=O)c1cncc(-c2ccc(/C=C3/C(=O)Nc4ccc(Cl)cc43)o2)c1` [Compound 152], the 50% inhibitory concentration (IC50) was < 1000 nM. On the same count and under the same terms, to `O=C1Nc2ccc(Cl)cc2/C1=C\c1ccc(-c2cccc(C(=O)NCC(O)c3ccccc3)c2)o1` (stereo not drawn) [Compound 180] belongs < 1000 nM; to `CN1CCC(N(C)C(=O)c2cccc(-c3ccc(/C=C4/C(=O)Nc5ccc(Cl)cc54)o3)c2)C1` (stereo not drawn) [Compound 109], < 2000 nM. `CN1CCCC(NC(=O)c2ccc(-c3ccc(/C=C4/C(=O)Nc5ccccc54)o3)cc2)C1` (stereo not drawn) [Compound 35]: the concentration for half-maximal inhibition (IC50) was < 1000 nM. As for `CN1CCCC(NC(=O)c2cncc(-c3ccc(/C=C4/C(=O)Nc5ccc(Cl)cc54)o3)c2)C1` (stereo not drawn) [Compound 149], the half-inhibitory concentration (IC50) is < 1000 nM.

In the case of `Cc1cc(-c2cccc(C(=O)NCc3cncn3C)c2)oc1/C=C1/C(=O)Nc2ccccc21` [Compound 158], the IC50 is < 2000 nM. Take `Cn1cncc1CNC(=O)c1cccc(-c2ccc(/C=C3/C(=O)Nc4ccc(F)cc43)o2)c1` [Compound 22]: the half-inhibitory concentration (IC50) was < 1000 nM.

Take `CN(C)C1CCN(C(=O)c2ccc(-c3ccc(/C=C4/C(=O)Nc5ccccc54)o3)cc2)CC1` [Compound 38]: the IC50 is < 2000 nM. In the case of `O=C(CCN1CCCC1)Nc1cccc(-c2ccc(/C=C3/C(=O)Nc4ccccc43)o2)c1` [Compound 184], the 50% inhibitory concentration (IC50) is < 1000 nM.

The experiment is the same for the next values; noted with them: Table 3; DMSO 4%; read-out: PIM1: IC50 (DMSO 4%).
Take `CN1CCN(c2ccc(-c3ccc(/C=C4\C(=O)Nc5ccc(Cl)cc54)o3)cn2)CC1`: the IC50 is < 1000 nM.
